Reference: US20060057092A1, “Cosmetic use of a composition including an ascorbic acid compound and polyamide particles” (L'OREAL, priority 2004, published 2006)

Tested on: immortalized human sebocytes resulting from the SZ95 line
Assay: Lipogenesis in cultured immortalized human sebocytes (Nile Red fluorescence, neutral lipids)
Type: cell-based
Conditions: for Inhibition of lipogenesis: Effectiveness (% with respect to the control): 0.0004% in culture medium, 2 days of treatment, neutral lipids
Experimental: Various ascorbic acid compounds were tested on a model of cultured immortalized human sebocytes resulting from the SZ95 line described in Zouboulis, C. C., Seltmann, H., Neitzel, H. and Orfanos, C. E., Establishment and Characterization of an Immortalized Human Sebaceous Gland Cell Line, J. Invest. Dermatol., 113, 1011-1020 (1999).
These compounds were composed of L-ascorbic acid 2-O-α-D-glucopyranoside (hereinafter ascorbyl glucoside), of ascorbic acid, of ascorbyl palmitate and of magnesium ascorbyl phosphate.
The test consisted in measuring the amount of lipids produced by the sebocytes of the line (at confluence) in the presence or absence of active agents diluted in the culture medium. After 2 days of treatment, the adherent cells are treated with Nile Red (1 μg/ml). The content of lipids is subsequently quantified by measuring the fluorescence of the dye (two excitation/emission pairs: 485-540 nm for the neutral lipids and 540-620 nm for the nonneutral lipids). The results are given for the neutral lipids (components of the sebum).
The experiment is carried out in octuplicate (tested and control products) in a 96-well plate.

SMILES | Inhibition of lipogenesis: Effectiveness (% with respect to the control) | also measured
CCCCCCCCCCCCCCCC(=O)OC[C@H](O)[C@H]1OC(=O)C(O)=C1O [Ascorbyl palmitate, ascorbyl palmitate] |  | effect on lipogenesis (in words) (SZ95 sebocytes): stimulating (and not inhibiting) effect
O=C1O[C@H]([C@@H](O)CO)C([O-])=C1OP(=O)([O-])[O-].O=C1O[C@H]([C@@H](O)CO)C([O-])=C1OP(=O)([O-])[O-].[Mg+2].[Mg+2].[Mg+2] [Magnesium ascorbyl phosphate, magnesium ascorbyl phosphate] | ns | 
O=C1O[C@H]([C@@H](O)CO)C(O)=C1O[C@H]1O[C@H](CO)[C@@H](O)[C@H](O)[C@H]1O [Ascorbyl glucoside, L-ascorbic acid 2-O-α-D-glucopyranoside] |  | effective concentration for reducing lipogenesis relative to ascorbic acid (comparable level of inhibition) (SZ95 sebocytes): ten times lower
O=C1O[C@H]([C@@H](O)CO)C(O)=C1O [Ascorbic acid, ascorbic acid] | ns | 
